The numbers were not newly measured in patent US7960134B1, “Kinase inhibition models and their uses” (ArQule, Inc., priority 2007, dated 2011), which cites them from elsewhere.

Data set [1] concerns the target c-Met (Homo sapiens, UniProt P08581). The settings on record: observation cited from WO 2006/086484 A1.
The target in data set [2] is c-Abl (Homo sapiens, UniProt P00519). As to conditions: observation cited from WO 2006/086484 A1.
Chain of c-Abl (P00519 whole entry): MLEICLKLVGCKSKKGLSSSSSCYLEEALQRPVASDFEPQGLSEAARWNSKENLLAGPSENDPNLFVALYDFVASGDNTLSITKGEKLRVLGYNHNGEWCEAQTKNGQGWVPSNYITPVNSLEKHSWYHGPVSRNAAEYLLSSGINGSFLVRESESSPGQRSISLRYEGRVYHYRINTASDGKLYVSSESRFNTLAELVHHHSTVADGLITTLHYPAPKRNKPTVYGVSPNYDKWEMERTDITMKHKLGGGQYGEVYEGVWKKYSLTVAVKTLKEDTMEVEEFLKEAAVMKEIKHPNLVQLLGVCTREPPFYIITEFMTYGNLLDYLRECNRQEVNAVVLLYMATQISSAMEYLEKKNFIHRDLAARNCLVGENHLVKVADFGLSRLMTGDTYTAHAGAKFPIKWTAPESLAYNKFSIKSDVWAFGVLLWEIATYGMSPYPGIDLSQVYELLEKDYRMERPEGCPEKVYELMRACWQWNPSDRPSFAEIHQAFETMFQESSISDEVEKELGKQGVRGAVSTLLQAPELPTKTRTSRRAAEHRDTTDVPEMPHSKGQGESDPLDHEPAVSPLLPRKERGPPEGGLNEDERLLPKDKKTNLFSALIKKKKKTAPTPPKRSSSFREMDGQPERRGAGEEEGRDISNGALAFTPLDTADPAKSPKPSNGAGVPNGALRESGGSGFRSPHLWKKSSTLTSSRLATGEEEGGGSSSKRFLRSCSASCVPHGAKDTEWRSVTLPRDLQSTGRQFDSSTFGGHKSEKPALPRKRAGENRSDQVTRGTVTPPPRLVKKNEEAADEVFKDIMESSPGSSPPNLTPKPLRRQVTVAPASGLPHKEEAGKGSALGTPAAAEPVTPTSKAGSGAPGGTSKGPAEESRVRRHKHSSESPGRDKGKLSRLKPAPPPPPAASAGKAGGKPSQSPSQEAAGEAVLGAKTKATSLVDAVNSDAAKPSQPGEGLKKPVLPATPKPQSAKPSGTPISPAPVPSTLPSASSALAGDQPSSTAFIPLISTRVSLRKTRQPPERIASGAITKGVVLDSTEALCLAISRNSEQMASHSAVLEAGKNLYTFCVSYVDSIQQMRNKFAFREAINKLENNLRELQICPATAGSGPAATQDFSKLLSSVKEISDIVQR

Chain of c-Met (P08581 25-1390): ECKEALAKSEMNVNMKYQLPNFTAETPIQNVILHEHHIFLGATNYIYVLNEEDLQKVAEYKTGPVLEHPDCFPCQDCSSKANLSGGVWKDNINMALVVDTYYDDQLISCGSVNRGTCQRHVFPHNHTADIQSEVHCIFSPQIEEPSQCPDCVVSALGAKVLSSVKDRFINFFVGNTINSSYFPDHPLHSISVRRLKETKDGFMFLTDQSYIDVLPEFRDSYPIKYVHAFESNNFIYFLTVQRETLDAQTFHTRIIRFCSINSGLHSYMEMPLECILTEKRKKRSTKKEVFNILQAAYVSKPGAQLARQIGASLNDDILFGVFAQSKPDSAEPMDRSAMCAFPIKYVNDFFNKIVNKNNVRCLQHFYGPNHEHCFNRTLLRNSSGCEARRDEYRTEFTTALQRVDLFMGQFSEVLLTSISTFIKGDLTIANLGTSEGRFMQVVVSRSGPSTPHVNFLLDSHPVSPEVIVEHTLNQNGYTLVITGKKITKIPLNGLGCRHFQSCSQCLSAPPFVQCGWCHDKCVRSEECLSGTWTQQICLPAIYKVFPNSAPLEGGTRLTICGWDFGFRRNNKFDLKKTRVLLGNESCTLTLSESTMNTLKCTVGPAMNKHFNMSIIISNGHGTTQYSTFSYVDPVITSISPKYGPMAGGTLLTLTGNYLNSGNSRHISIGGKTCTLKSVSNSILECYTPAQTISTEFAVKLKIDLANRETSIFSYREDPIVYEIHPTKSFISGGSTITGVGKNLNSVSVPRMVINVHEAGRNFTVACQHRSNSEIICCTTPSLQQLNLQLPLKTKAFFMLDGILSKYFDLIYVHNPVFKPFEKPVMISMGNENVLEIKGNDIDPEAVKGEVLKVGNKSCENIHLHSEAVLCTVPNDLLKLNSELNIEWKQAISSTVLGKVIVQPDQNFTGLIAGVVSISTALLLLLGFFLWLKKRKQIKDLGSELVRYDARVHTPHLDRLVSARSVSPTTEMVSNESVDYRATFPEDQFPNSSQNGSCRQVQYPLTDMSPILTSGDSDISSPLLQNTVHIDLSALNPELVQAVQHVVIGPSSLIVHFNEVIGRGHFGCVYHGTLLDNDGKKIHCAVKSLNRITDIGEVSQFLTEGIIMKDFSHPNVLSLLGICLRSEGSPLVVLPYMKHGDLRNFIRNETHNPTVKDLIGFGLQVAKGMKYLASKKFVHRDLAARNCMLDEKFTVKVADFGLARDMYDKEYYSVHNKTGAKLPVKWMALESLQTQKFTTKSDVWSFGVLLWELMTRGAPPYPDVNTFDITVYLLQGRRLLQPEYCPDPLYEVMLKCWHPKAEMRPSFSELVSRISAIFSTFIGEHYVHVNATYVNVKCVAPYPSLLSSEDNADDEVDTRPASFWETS

As for `O=C1NC(=O)[C@@H](c2cn3c4c(cccc24)CCC3)[C@@H]1c1c[nH]c2ccccc12` (single isomer, unassigned) [the selective c-Met inhibitor, (−)-trans-3-(5,6-dihydro-4H-pyrrolo[3,2,1-ij]quinolin-1-yl)-4(1H-indol-3-yl)pyrrolidine-2,5-dione], the “inhibition of the activity of c-Met” value in data set [1] is listed as “inhibits the activity of c-Met effectively”. Besides, the “inhibition of the activity of c-Abl” value in data set [2] was “does not inhibit the activity of c-Abl effectively”.
